According to article PMC6010099, “Synthesis and antitumor activity of novel 2, 3-didithiocarbamate substituted naphthoquinones as inhibitors of pyruvate kinase M2 isoform” (Journal of Enzyme Inhibition and Medicinal Chemistry, 2017):
Like-named read-outs stand apart in the source and are kept apart here.

Tests used:
Hela = assay: MTS cell proliferation assay, Hela; assay type: cell-based, human; settings: Hela cervical cancer, 48 h, read-out: IC50 ± SD, in vitro cytotoxicity Hela
Protocol: (§1) Cell lines were grown with routine culture techniques in RPMI 1640 supplemented with 9% foetal bovine serum at 37 °C in 5% CO2.
(§2) Cells were plated in 96-well plates at a density of 5000 cells per well. Twelve hours after seeding, cells were treated with various concentrations of test compounds for 48 h. Cell viability was assessed with the MTS assay (Promega) according to the manufacturer's instruction.
(§3) To determine the efficiency of 3a-3h as antitumour agents, we assessed the in vitro cytotoxicity of 3a-3h using several different tumour cell lines derived from human colon cancer (HCT116), breast cancer (MCF7), cervical cancer (Hela) and lung cancer (H1299) and mouse melanoma (B16). […] This discrepancy may be due to the different properties of these compounds such as cell penetration that is important in the cellular assay.

H1299 = assay: MTS cell proliferation assay, H1299; assay type: cell-based, human; settings: 48 h, read-out: IC50 ± SD, in vitro cytotoxicity H1299
Protocol: as §1, §2, §3

MCF7 = assay: MTS cell proliferation assay, MCF7; assay type: cell-based, human; settings: MCF7 breast cancer, 48 h, read-out: IC50 ± SD, in vitro cytotoxicity MCF7
Protocol: as §1, §2, §3

PKM2 = target: T1, PKM2 (Homo sapiens, UniProt P14618); assay: PKM2 activity assay (fluorescent pyruvate kinase-lactate dehydrogenase coupled assay); assay type: biochemical; settings: recombinant human PKM2, fluorescent PK-LDH coupled assay; read-out: IC50 ± SD, PKM2 inhibitory activity
T1 construct: His tag (N); made in house; host or cells: Escherichia coli BL21
Protocol: Human cDNA for PKM2 was cloned into pET28a^+ with a N-terminal His tag and purified from Escherichia coli strain BL21 (Invitrogen) using Ni-Agarose beads (Qiagen) as described previously.
Pyruvate kinase activity was measured with a fluorescent pyruvate kinase-lactate dehydrogenase coupled assay as previously described.
We first tested the effect of compound 3a-3h on PKM2 activity using a fluorescent PK-LDH coupled assay according to a previously reported method. Shikonin, which is a known inhibitor of PKM2, was used as the positive control. […] The preliminary SAR can be summarised as follows. The amine moiety of target compounds greatly influenced PKM2 inhibitory activity. Introduction of a short chain N, N-dimethylamine reduced the inhibitory activity (3b vs. 3c and 3d). When the n-propyl amine in 3d was replaced by allyl amine (3e), the inhibitory activity was lowered. […] Introduction of a sulphur atom therefore contributed to improvement of PKM2 inhibitory activity.

B16 = assay: MTS cell proliferation assay, B16; assay type: cell-based; settings: B16 mouse melanoma, 48 h, read-out: IC50 ± SD, in vitro cytotoxicity B16
Protocol: as §1, §2, §3

HCT116 = assay: MTS cell proliferation assay, HCT116; assay type: cell-based, human; settings: 48 h, read-out: IC50 ± SD, in vitro cytotoxicity HCT116
Protocol: as §1, §2, §3

[1] = test system: HCT116, MCF7, Hela, H1299 and B16 cells; assay: MTS cell proliferation assay, range over the tumour cell panel; assay type: cell-based; settings: range over the five cell lines, read-out: IC50 values against HCT116, MCF7, Hela, H1299 and B16 cells (range over cell lines)
Protocol: as §1, §2, §3

BEAS-2B cells = assay: Cytotoxicity in normal BEAS-2B cells; assay type: cell-based; settings: normal human bronchial epithelial cells
Protocol: as §1, §2
To further explore the selectivity of target compounds against cancer cells, we tested the cytotoxicity of representative compound 3f in BEAS-2B cells derived from normal human bronchial epithelial cells.

[2] = Homo sapiens, NCI-H1299, H1299 lung cancer
[3] = Homo sapiens, HCT-116, HCT116 colon cancer

T1 sequence (P14618 whole entry): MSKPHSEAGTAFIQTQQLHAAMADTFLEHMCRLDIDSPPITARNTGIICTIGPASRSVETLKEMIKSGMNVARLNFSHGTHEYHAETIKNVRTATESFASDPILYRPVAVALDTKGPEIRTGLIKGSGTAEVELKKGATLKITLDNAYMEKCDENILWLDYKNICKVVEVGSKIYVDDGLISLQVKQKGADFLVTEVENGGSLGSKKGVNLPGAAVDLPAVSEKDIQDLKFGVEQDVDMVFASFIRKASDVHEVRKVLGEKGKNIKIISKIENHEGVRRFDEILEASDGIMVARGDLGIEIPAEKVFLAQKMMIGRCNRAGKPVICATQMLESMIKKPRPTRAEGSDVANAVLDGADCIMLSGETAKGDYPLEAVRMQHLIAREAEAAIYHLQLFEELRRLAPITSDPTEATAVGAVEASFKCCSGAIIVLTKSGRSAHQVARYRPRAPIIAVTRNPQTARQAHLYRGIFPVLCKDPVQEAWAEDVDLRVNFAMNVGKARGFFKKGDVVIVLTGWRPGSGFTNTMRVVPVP

| Compound | IC50 (PKM2) [nM] | IC50 [1] [nM] | melting point [°C] | IC50 (Hela) [nM] | IC50 (H1299; H1299 lung cancer) [nM] | IC50 (MCF7) [nM] | IC50 (B16) [nM] | IC50 (HCT116; HCT116 colon cancer) [nM] | IC50 (Hela; Homo sapiens) [nM] | IC50 (H1299; [2]) [nM] | IC50 (MCF7; Homo sapiens) [nM] | IC50 (HCT116; [3]) [nM] | IC50 (BEAS-2B cells) [nM] |
| --- | --- | --- | --- | --- | --- | --- | --- | --- | --- | --- | --- | --- | --- |
| CN(C)C(=S)SCC1=C(CSC(=S)N(C)C)C(=O)c2ccccc2C1=O [3b, dimethyl-dithiocarbamic acid 3-dimethylthiocarbamoylsulphanylmethyl-1,4-dioxo-1,4-dihydro-naphthalen-2-ylmethyl ester] | > 10000 | 69 to 122 |  |  |  |  | 104 ± 11 |  | 122 ± 17 | 109 ± 2 | 69 ± 9 | 88 ± 4 |  |
| CCN(CC)C(=S)SCC1=C(CSC(=S)N(CC)CC)C(=O)c2ccccc2C1=O [3c, diethyl-dithiocarbamic acid 3-diethylthiocarbamoylsulphanylmethyl-1,4-dioxo-1,4-dihydro-naphthalen-2-ylmethyl ester] | 2780 ± 970 | 84 to 251 | 130 to 131 |  |  |  | 108 ± 10 |  | 251 ± 59 | 144 ± 13 | 84 ± 3 | 93 ± 2 |  |
| CCCN(CCC)C(=S)SCC1=C(CSC(=S)N(CCC)CCC)C(=O)c2ccccc2C1=O [3d, dipropyl-dithiocarbamic acid 3-dipropylthiocarbamoylsulphanylmethyl-1,4-dioxo-1,4-dihydro-naphthalen-2-ylmethyl ester] | 3080 ± 1230 |  | 111 to 112 |  |  |  | 787 ± 203 |  | > 10000 | 830 ± 162 | > 10000 | 597 ± 14 |  |
| C=CCN(CC=C)C(=S)SCC1=C(CSC(=S)N(CC=C)CC=C)C(=O)c2ccccc2C1=O [3e, diallyl-dithiocarbamic acid 3-diallylthiocarbamoylsulphanylmethyl-1,4-dioxo-1,4-dihydro-naphthalen-2-ylmethyl ester] | > 10000 |  |  |  |  |  | 709 ± 27 |  | 3460 ± 3190 | 1020 ± 111 | 1090 ± 421 | 742 ± 45 |  |
| CC1=C(CSC(=S)N2CCCCC2)C(=O)c2ccccc2C1=O [3k, reference compound] | 2950 ± 530 |  |  |  |  |  |  |  |  |  |  |  |  |
| CC(C)=CC[C@@H](O)C1=CC(=O)c2c(O)ccc(O)c2C1=O [Shikonin, reference compound] | 8820 ± 2620 |  |  |  |  |  | 1220 ± 155 |  | 813 ± 81 | 954 ± 186 | 2400 ± 346 | 1060 ± 182 |  |

Continued, in another order:

| IC50 (PKM2) [nM] | IC50 [1] [nM] | melting point [°C] | Compound | IC50 (Hela) [nM] | IC50 (H1299; H1299 lung cancer) [nM] | IC50 (MCF7) [nM] | IC50 (B16) [nM] | IC50 (HCT116; HCT116 colon cancer) [nM] | IC50 (Hela; Homo sapiens) [nM] | IC50 (H1299; [2]) [nM] | IC50 (MCF7; Homo sapiens) [nM] | IC50 (HCT116; [3]) [nM] | IC50 (BEAS-2B cells) [nM] |
| --- | --- | --- | --- | --- | --- | --- | --- | --- | --- | --- | --- | --- | --- |
| 2640 ± 980 |  |  | O=C1C(CSC(=S)N2CCOCC2)=C(CSC(=S)N2CCOCC2)C(=O)c2ccccc21 [3a, dimorpholine-dithiocarbamic acid 3-dimorpholinethiocarbamoylsulphanylmethyl-1,4-dioxo-1,4-dihydro-naphthalen-2-ylmethyl ester] | 337 ± 54 | 331 ± 91 | 340 ± 3 | 272 ± 10 | 214 ± 3 |  |  |  |  |  |
| 1050 ± 170 |  |  | O=C1C(CSC(=S)N2CCSCC2)=C(CSC(=S)N2CCSCC2)C(=O)c2ccccc21 [3f, dithiamorpholine-dithiocarbamic acid 3-dithiamorpholinethiocarbamoylsulphanylmethyl-1,4-dioxo-1,4-dihydro-naphthalen-2-ylmethyl ester] | 412 ± 18 | 206 ± 18 | 194 ± 55 | 189 ± 6 | 189 ± 35 |  |  |  |  | 11500 ± 620 |
| 2330 ± 520 |  |  | O=C1C(CSC(=S)N2CCCC2)=C(CSC(=S)N2CCCC2)C(=O)c2ccccc21 [3g, dipyrrolidine-dithiocarbamic acid 3-dipyrrolidinethiocarbamoylsulphanylmethyl-1,4-dioxo-1,4-dihydro-naphthalen-2-ylmethyl ester] | 298 ± 53 | 247 ± 15 | 638 ± 20 | 159 ± 2 | 164 ± 3 |  |  |  |  |  |
| 960 ± 180 |  |  | O=C1C(CSC(=S)N2CCSC2)=C(CSC(=S)N2CCSC2)C(=O)c2ccccc21 [3h, dithiazolidine-dithiocarbamic acid 3-dithiazolidinethiocarbamoylsulphanylmethyl-1,4-dioxo-1,4-dihydro-naphthalen-2-ylme-thyl ester] | 1130 ± 80 | 306 ± 8 | 234 ± 45 | 317 ± 22 | 374 ± 15 |  |  |  |  |  |
